Assay results published in BindingDB's records for patent US8633204 (Pfizer, 2014).

Biological target: Phosphatidylinositol 4,5-bisphosphate 3-kinase catalytic subunit alpha isoform (Mus musculus, UniProt P42337)
Assay: Biochemical Assay
Details: pH 7.4; 25 °C
Method: Compounds of the present invention were evaluated for potency against PI3-Kα using an in vitro kinase assay. PI3-Kα activity is measured in vitro by determining the level of phosphorylation of the substrate PI(4,5)P2. The formation of product PI(3,4,5)P3 is monitored by binding to the Grip1 PH domain in a ligand displacement fluorescence polarization (FP) assay, in which the TAMRA-labeled PI(3,4,5)P3 complexed with Grip1 PH domain is displaced by PI(3,4,5)P3 formed in the PI3-Kα reaction resulting in a decrease in FP signal.

Phosphatidylinositol 4,5-bisphosphate 3-kinase catalytic subunit alpha isoform, sequence (P42337 whole entry, canonical isoform): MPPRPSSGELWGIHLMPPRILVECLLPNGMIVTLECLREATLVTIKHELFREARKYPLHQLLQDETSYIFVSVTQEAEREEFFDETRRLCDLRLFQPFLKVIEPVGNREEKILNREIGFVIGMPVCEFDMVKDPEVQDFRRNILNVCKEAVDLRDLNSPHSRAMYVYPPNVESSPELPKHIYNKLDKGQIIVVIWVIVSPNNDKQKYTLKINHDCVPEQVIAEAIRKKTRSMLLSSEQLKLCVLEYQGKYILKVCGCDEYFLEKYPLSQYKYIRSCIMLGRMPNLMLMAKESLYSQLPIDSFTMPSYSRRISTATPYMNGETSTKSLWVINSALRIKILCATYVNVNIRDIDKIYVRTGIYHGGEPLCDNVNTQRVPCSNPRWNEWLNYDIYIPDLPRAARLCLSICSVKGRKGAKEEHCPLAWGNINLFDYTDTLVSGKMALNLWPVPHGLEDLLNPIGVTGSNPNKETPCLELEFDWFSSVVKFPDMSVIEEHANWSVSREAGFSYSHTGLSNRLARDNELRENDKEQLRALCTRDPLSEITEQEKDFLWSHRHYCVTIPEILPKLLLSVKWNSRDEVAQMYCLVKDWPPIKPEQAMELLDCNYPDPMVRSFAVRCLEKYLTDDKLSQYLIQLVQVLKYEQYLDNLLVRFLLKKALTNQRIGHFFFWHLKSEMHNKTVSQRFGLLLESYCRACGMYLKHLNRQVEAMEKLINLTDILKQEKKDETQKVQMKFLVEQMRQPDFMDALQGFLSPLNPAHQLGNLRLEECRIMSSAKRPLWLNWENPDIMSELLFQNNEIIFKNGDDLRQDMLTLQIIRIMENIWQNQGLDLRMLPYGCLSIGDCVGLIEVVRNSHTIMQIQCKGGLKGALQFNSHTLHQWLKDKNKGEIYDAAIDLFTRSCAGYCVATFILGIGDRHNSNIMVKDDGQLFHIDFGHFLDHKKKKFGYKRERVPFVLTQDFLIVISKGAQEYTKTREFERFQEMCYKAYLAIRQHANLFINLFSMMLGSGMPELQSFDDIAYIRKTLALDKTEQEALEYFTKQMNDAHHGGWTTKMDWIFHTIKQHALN

Row | IC50 | SMILES
1 | 1430 nM | Cc1nc(N)nc2c1cc(-c1cccnc1N)c(=O)n2C1CCCC1 [US8633204, 125]
2 | 3.08 nM | CCNc1nc(C)c2cc(-c3ccc(O)c(OC)c3)c(=O)n(C3CCCC3)c2n1 [US8633204, 136]
3 | 1.01 nM | CCNc1nc(C)c2cc(-c3cccc(O)c3)c(=O)n(C3CCCC3)c2n1 [US8633204, 144]
4 | 44 nM | Cc1nc(N)nc2c1cc(Br)c(=O)n2[C@H]1CC[C@H](O)CC1 [US8633204, 157]
5 | 680 nM | Cc1nc(N)nc2c1cc(Br)c(=O)n2CC(C)(C)O [US8633204, 167]
6 | 12 nM | Cc1nc(N)nc2c1cc(-c1cn[nH]c1)c(=O)n2C1CCC(=O)CC1 [US8633204, 176]
7 | 32 nM | Cc1nc(N)nc2c1cc(-c1cnn(C)c1)c(=O)n2C1CCCC1 [US8633204, 235]
